Results reported in PMC2861162, “Purified TPC Isoforms Form NAADP Receptors with Distinct Roles for Ca^2+ Signaling and Endolysosomal Trafficking” (Current Biology, 2010).

What was measured:
SpTPC3 = target: T1, SpTPC3 (Strongylocentrotus purpuratus, UniProt B8PXK0); test: […]NAADP competition binding on immunoprecipitate; conditions: competitor against [32P]NAADP; immunopurified native complex; K+-dependent irreversible binding
T1 construct: endogenous full-length protein immunoprecipitated with anti-SpTPC3 serum from solubilized egg membranes (S10P100 fraction); possibly homodimer; may carry associated proteins
T1 sequence (B8PXK0 1-840): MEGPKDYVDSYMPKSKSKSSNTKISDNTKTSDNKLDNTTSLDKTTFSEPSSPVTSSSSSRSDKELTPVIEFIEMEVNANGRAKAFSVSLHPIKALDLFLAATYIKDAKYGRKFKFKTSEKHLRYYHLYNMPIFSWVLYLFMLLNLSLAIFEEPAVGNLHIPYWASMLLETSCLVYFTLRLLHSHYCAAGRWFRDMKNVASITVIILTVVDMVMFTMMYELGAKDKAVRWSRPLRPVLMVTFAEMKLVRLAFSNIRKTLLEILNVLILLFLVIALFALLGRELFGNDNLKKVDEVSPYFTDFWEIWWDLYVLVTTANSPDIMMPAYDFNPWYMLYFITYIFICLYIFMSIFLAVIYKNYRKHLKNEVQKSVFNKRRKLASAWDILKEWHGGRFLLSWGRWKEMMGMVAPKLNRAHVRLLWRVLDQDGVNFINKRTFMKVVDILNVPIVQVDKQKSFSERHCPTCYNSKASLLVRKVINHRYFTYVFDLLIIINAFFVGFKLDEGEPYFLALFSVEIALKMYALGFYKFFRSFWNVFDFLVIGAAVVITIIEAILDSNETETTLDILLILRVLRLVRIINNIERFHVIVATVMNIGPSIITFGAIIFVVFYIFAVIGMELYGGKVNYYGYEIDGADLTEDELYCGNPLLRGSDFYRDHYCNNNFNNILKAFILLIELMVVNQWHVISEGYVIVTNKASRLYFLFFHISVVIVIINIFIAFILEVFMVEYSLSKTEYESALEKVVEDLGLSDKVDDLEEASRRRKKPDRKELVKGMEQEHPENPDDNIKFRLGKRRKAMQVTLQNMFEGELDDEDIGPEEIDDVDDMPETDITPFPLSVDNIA

SpTPC1 = target: T2, SpTPC1 (Strongylocentrotus purpuratus, UniProt B8PXJ8); test: as above; conditions: competitor against [32P]NAADP; immunopurified native complex; K+-dependent irreversible binding
T2 construct: endogenous full-length protein immunoprecipitated with anti-SpTPC1 serum from solubilized egg membranes (S10P100 fraction); native complex, may carry associated proteins
T2 sequence (B8PXJ8 1-882): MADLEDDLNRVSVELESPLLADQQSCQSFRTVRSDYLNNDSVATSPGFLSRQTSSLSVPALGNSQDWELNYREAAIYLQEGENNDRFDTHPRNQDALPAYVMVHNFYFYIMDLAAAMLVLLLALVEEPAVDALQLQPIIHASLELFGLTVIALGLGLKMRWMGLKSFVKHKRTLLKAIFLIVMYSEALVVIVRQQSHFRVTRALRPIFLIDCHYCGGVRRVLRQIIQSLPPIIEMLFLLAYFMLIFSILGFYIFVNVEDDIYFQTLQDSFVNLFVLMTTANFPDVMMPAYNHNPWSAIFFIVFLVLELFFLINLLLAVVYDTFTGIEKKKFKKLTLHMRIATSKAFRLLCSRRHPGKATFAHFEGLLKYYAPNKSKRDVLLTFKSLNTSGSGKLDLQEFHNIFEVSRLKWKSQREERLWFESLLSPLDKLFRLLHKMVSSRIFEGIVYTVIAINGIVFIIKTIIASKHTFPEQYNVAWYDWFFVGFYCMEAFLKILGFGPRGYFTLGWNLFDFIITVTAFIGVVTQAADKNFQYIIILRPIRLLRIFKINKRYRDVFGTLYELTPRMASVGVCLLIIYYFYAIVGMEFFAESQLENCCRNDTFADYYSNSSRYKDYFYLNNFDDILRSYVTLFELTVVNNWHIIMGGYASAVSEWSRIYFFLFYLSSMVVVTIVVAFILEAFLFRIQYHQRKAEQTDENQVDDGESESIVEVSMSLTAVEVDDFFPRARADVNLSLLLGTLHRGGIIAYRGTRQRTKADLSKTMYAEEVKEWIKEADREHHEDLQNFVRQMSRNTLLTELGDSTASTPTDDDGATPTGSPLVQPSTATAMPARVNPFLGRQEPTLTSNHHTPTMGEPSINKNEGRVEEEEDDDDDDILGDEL

Compound `Nc1ncnc2c1ncn2[C@@H]1O[C@H](COP(=O)(O)OP(=O)(O)OC[C@H]2O[C@@H]([n+]3cccc(C(=O)O)c3)[C@H](O)[C@@H]2O)[C@@H](O)[C@H]1OP(=O)(O)O` [NAADP] has an IC50 (SpTPC3) of 0.9 nM and an IC50 (SpTPC1) of 1.4 nM.
